Results reported in patent US20230114207A1, “THE COMBINATION OF CYCLIN DEPENDENT KINASE 7 INHIBITOR AND IMMUNOTHERAPY FOR TREATMENT OF CANCER” (Dana-Farber Cancer Institute, Inc., priority 2019, published 2023).

Tests used:
[1] = test system: CDK7-Cyclin H complexes; assay: Competitive pulldown assay (Bio-THZ1), Cyclin H; type: cell-based, mouse, human; conditions: SCLC cells (RPP631, DMS79) treated 6 hours
Protocol: Bio-THZ1 pulldown experiments followed by western blotting of enriched proteins was performed as described in Kwiatkowski, et al., Nature, 2014, 511, 616-620. Briefly, cells were treated with YKL-5-124 or DMSO for 6 hr (in vitro) or 72 hr (in vivo). Following treatment, cells were washed twice with cold PBS and then lysed in the following lysis buffer: 50 mM TrisHCI pH 8.0, 150 mM NaCl, 1% NP-40, 5 mM EDTA, 1 mM DTT, and protease/phosphatase cocktails. Following clearance, lysates were treated with biotinylated THZ1 for pulldown overnight at 4° C. Lysates were further incubated at room temperature for 3 hr to increase the efficiency of covalent bond formation. Lysates were then incubated with streptavidin agarose for pulldown for an additional 2-3 hr at 4° C. Agarose beads were washed 5 times with lysis buffer and then boiled in 2×SDS at 95° C. SDS-page resolved precipitated proteins were probed for the indicated proteins.

[2] = test system: C-terminal domain (CTD) phosphorylation of RNA Pol II; assay: Western blotting of RNA Pol II CTD phosphorylation in SCLC lines; type: cell-based, mouse, human; conditions: 24 hr
Protocol: Cells in culture were collected by centrifuging at 1,500 rpm and then washed with ice-cold PBS twice to completely remove residual medium. RIPA lysis buffer (Thermo Fisher Scientific, Cat #89900) supplemented with Halt™ Protease and Phosphatase Inhibitor Cocktail (Thermo Fisher Scientific, Cat #78440) was added to cell pellets to extract protein. Protein concentrations in lysates were measured by Pierce™ BCA Protein Assay Kit (Thermo Fisher Scientific, Cat #23225) and followed by the addition of SDS loading buffer (6×) and heated at 95° C. for 5 min. Equal amount of protein samples was subjected to 4-20% gradient gel SDS-PAGE and transferred to a nitrocellulose membrane (Bio-Rad, Cat #1704271). The membrane was blocked in Odyssey® Blocking Buffer (LI-COR, Cat #927-50003) at room temperature for 1 hour and incubated with appropriate antibodies at 4° C. overnight (Key Resources Table). Antibodies were diluted in TBST (TBS with 0.1% Tween) with 20% LI-COR Odyssey Blocking Buffer. On the next day, the membrane was washed with TBST (TBS with 0.1% Tween) four times and incubated with appropriate secondary antibodies (LI-COR, anti-Rabbit, Cat #925-32213; anti-Mouse, Cat #925-68072) at room temperature for 1 hour. Membranes were imaged using the LI-COR Odyssey® Imaging System.

[3] = test system: INSM1, ASCL1, NFIB and MYC in DMS79 and GLC16; assay: RT-qPCR of super enhancer (SE)-associated genes; type: cell-based, human; conditions: 24 hr
Protocol: Cell pellets were collected and then subjected to total RNA extraction using RNeasy Plus Mini Kit (QIAGEN, Cat #74136) according to the manufacturer's instructions, or using TRIzol:Chloroform phase-separation by centrifugation followed by RNA precipitation using isopropanol. The extracted RNA was reversely transcribed into cDNA using the High-Capacity RNA-to-cDNA™ Kit (Thermo Fisher Scientific, Cat #4387406) according to the manufacturer's instructions. The obtained cDNA samples were diluted and used for RT-qPCR. PowerUp™ SYBR™ Green Master Mix (Thermo Fisher Scientific, Cat #A25742) or TaqMan Gene Expression Master Mix (Life Technologies, Cat #4369514). Gene specific primers with sequences listed in Table 3 were used for PCR amplification and detection on the StepOnePlus™ Real-Time PCR System (Thermo Fisher Scientific). RT-qPCR data were normalized to Actb (mouse cells) or GUSB (human cells) and presented as fold changes of gene expression in the test sample compared to the control.

[4] = test system: RPP orthotopic model; assay: Treatment study in RPP orthotopic SCLC model; type: in vivo, mouse
Protocol: (§1) All animal studies were reviewed and approved by the Institutional Animal Care and Use Committee (IACUC) at the New York University Langone Health (NYULH) and Dana-Farber Cancer Institute (DFCI). From 6 weeks of age, mice were induced with adenovirus-Cre recombinase (Ad-Cre) by intratracheal intubation to allow cre-lox-mediated recombination of floxed Rb1, p53 and p130 alleles. For syngeneic orthotopic models, ultrasound-guided transthoracic injection was performed using 200,000 RPP631, RP or RPP-MYC cells in 30 μL PBS directly into the lung of 6 to S-week-old C57BL/6 (Jackson Laboratory, Stock No: 000664). For OT-IT cell assay, OT-I mice were purchased from the Jackson Laboratory (Stock No: 003S31). Both males and females mice were used and all mice were maintained in accordance with the respective NYULH and DFCI on the care, welfare, and treatment of laboratory animals. […]
(§2) Animals were anesthetized with isoflurane to perform MRI of the lung field using BioSpec USR70/30 horizontal bore system (Bruker) to scan 24 consecutive sections. Tumor volumes within the whole lung were quantified using 3-D slicer software to reconstruct MRI volumetric measurements as described previously. […]

[5] = test system: RP orthotopic model; assay: Treatment study in RP orthotopic SCLC model; type: in vivo, mouse
Protocol: as §1, §2

## C=CC(=O)Nc1ccc(C(=O)Nc2n[nH]c3c2CN(C(=O)N[C@H](CN(C)C)c2ccccc2)C3(C)C)cc1 [YKL-5-124]
[1]
  block of Cyclin H pulldown: efficiently prevented
[2]
  C-terminal domain (CTD) phosphorylation of RNA Pol II (Ser2, Ser5): no effect
[3]
  expression of super enhancer (SE)-associated genes including INSM1, ASCL1, NFIB and MYC: no effect
[4]; RPP model, vs control
  added median survival benefit: approximately 30 days
[4]; RPP orthotopic model, 2- to 3-week
  tumor response / tumor growth (MRI tumor volume): significant tumor response
[5]; RP model, vs control
  added median survival benefit: approximately 30 days
[5]; RP orthotopic model
  tumor response / tumor growth (MRI tumor volume): notably delayed tumor growth
